Where “and” joins values, the source holds several entries; their conditions need not be identical. Equal values may be shown once. Read-outs that look alike come from different tables or passages of the source.
Assays:
[1] = biological target: SARS-CoV-2 NSP3 macrodomain (Mac1) (Severe acute respiratory syndrome coronavirus 2, UniProt P0DTD1); experiment: biochemical; format: binding
[2] = biological target: SARS-CoV-2 NSP3 macrodomain (Mac1), P43 crystal form (Severe acute respiratory syndrome coronavirus 2, UniProt P0DTD1); format: binding; conditions: for PanDDA run, TFA/DMSO background map: 1-BDC / PanDDA run, TFA/DMSO background map: Hit: soak concentration 10 mM; for 1-BDC: PanDDA background density correction; for X-ray crystal structure: X-ray crystal structure determined (TRUE); for Total number of conformations: ligand conformations modeled in Mac1 crystal structure; for 2*(1-BDC) (%): occupancy estimate from PanDDA BDC; for Binding site: site of ligand in X-ray crystal structure
[3] = dose-response, read-out: SARS CoV-2 macrodomain HTRF assay: IC50
[4] = dose-response, read-out: SARS CoV-2 macrodomain HTRF assay: Ki
[5] = from SARS CoV-2 macrodomain HTRF assay
[6] = ligand modeling in Mac1 crystal soak
[7] = Single dose, concentration 200 μM, read-out: Average % competition
[8] = preliminary screen, compound at 200 μM, mean of 3-4 technical replicates, read-out: % competition in HTRF assay
[9] = Single dose, concentration 200 μM, read-out: SARS CoV-2 macrodomain HTRF assay: Average % competition
[10] = stereoisomer(s) of ligand modeled in Mac1 crystal structure
[11] = crystal soak 10 mM, P43 crystals
[12] = crystal soak 10 mM, DMSO background map
[13] = SARS CoV-2 macrodomain HTRF assay
[14] = SARS CoV-2 macrodomain HTRF assay, dose-response, read-out: Ki
[15] = SARS CoV-2 macrodomain HTRF assay, dose-response
[16] = crystal soak 10 mM, DMSO background map, event 1
[17] = ligand modeling in Mac1 crystal structure
[18] = stereoisomer(s) modeled in Mac1 crystal structure
[19] = SARS CoV-2 macrodomain HTRF assay, dose-response, read-out: IC50

| SMILES | Ki [1, 4] [µM] | Ligand efficiency (binding enery per heavy atom) [1, 5] | Number of isomers bound [2, 6] | inhibition at 200 µM [1, 8] [%] | PanDDA run, TFA/DMSO background map: 1-BDC ([2]; TFA/DMSO background map) | PanDDA run, TFA/DMSO background map: Hit ([2]; TFA/DMSO background map) | inhibition at 200 µM [1, 9] [%] | further results |
| --- | --- | --- | --- | --- | --- | --- | --- | --- |
| CC1(C)C[C@@H](CO)N(c2ncnc3[nH]ccc23)C1.O=C(O)C(F)(F)F [AVI-3704] | 27 | 0.35 | 1 |  |  |  |  | IC50 [1, 3]: 29 µM |
| OCC(Cc1ccoc1)Nc1ncnc2[nH]ccc12 (stereo not shown) [AVI-3705] |  |  | 1 | 64 | 0.14 | TRUE |  | inhibition at 200 µM [1, 7]: 64% |
| OCC1CC2(CCOCC2)CN1c1ncnc2[nH]ccc12 (stereo not shown) [AVI-3707] |  |  | 1 | 39 | 0.15 | TRUE | 39 |  |
| OCC1CC2(CCCC2)CN1c1ncnc2[nH]ccc12 (stereo not shown) [AVI-3708] | 25 | 0.32 | 1 |  |  |  |  | IC50 [1, 3]: 27 µM |
| OCC(COCc1ccccc1)Nc1ncnc2[nH]ccc12 (stereo not shown) [AVI-3709] |  |  | 2 | 29 | 0.16 | TRUE |  | inhibition at 200 µM [1, 7]: 29%; Isomers modeled [2, 10]: S,R |
| O=C(O)C(F)(F)F.OC[C@@H]1CC2(CC2)CN1c1ncnc2[nH]ccc12 [AVI-3710] |  |  | 1 | 57 | 0.23 | TRUE | 57 | Isomers modeled [2, 10]: S,S |
| OCC(Cc1cccs1)Nc1ncnc2[nH]ccc12 (stereo not shown) [AVI-3711] |  |  | 1 | 63 | 0.16 | TRUE |  | inhibition at 200 µM [1, 7]: 63% |
| OCC1C2CCC(C2)N1c1ncnc2[nH]ccc12 (stereo not shown) [AVI-3713] | 25 | 0.35 | 1 |  |  |  |  | IC50 [1, 3]: 27 µM; Isomers modeled [2, 10]: SSR |
| OCC(Nc1ncnc2[nH]ccc12)c1ccccc1 (stereo not shown) [AVI-3715] |  |  | 1 | 54 | 0.09 | TRUE |  | inhibition at 200 µM [1, 7]: 54% |
| OCC1COCCN1c1ncnc2[nH]ccc12 (stereo not shown) [AVI-3717] |  |  | 2 | 62 |  |  | 62 | Isomers modeled [2, 10]: R,S |
| CC(C)(C)C1CCC(CO)N(c2ncnc3[nH]ccc23)C1 (stereo not shown) [AVI-3719] |  |  | 1 | 36 |  |  | 36 |  |
| OC[C@@H]1C[C@@H]2CCC[C@@H]2N1c1ncnc2[nH]ccc12 [AVI-3720] | 26 | 0.33 | 1 |  |  |  |  | IC50 [1, 3]: 28 µM; Isomers modeled [2, 10]: SSS |
| CN1CCN(c2ncnc3[nH]ccc23)C(CO)C1 (stereo not shown) [AVI-3721] |  |  | 1 | 11 |  |  | 11 | Isomers modeled [2, 10]: R,R |
| CC(C)(C)[C@@H]1CCN(c2ncnc3[nH]ccc23)[C@H](CO)C1 [AVI-3722] |  |  | 1 | 22 |  |  | 22 |  |
| OC[C@H]1CN2CCC[C@H]2CN1c1ncnc2[nH]ccc12 [AVI-3724] |  |  |  | < 10 |  |  | < 10 | Pandda run, overall: Hit [2, 11]: TRUE; Pandda run, overall: Modeling comment [2, 11]: Weak density, not modeled; PanDDA run, DMSO background map: 1-BDC [2, 12]: 0.05; PanDDA run, DMSO background map: Hit [2, 12]: TRUE |
| CC1(C)CCC(CO)N(c2ncnc3[nH]ccc23)C1 (stereo not shown) [AVI-3726] |  |  | 2 | 76 |  |  | 76 | Isomers modeled [2, 10]: R,R,S |

| SMILES | Ki [1, 4] [µM] | Ligand efficiency (binding enery per heavy atom) [1, 5] | Number of isomers bound [2, 6] | inhibition at 200 µM [1, 8] [%] | PanDDA run, TFA/DMSO background map: 1-BDC ([2]; TFA/DMSO background map) | PanDDA run, TFA/DMSO background map: Hit ([2]; TFA/DMSO background map) | inhibition at 200 µM [1, 9] [%] | further results |
| --- | --- | --- | --- | --- | --- | --- | --- | --- |
| OCC1CC2(CCCCC2)CN1c1ncnc2[nH]ccc12 (stereo not shown) [AVI-3727] |  |  | 1 | 67 | 0.25 | TRUE | 67 |  |
| OCC1CC2(CCC2)CN1c1ncnc2[nH]ccc12 (stereo not shown) [AVI-3728] |  |  | 1 | 79 | 0.26 | TRUE | 79 | Isomers modeled [2, 10]: S,S |
| C[C@@H](O)[C@H](CO)Nc1ncnc2[nH]ccc12.O=C(O)C(F)(F)F [AVI-3730] |  |  | 1 | 63 | 0.12 | TRUE |  | inhibition at 200 µM [1, 7]: 63% |
| O=C(O)C(F)(F)F.OC1([C@H]2CCCN2c2ncnc3[nH]ccc23)Cc2ccccc2C1 [AVI-3731] | 3.4 | 0.31 | 1 |  | 0.14 | TRUE |  | fold more potent compared to open state binders reported previously ([1]; open state of Phe132 loop): 10–50 fold; IC50 ([1]; read-out: HTRF IC50): 3.7 µM |
| Cc1nn(C)cc1C1CCC(CO)N1c1ncnc2[nH]ccc12 (stereo not shown) [AVI-3733] |  |  | 1 | 44 |  |  | 44 |  |
| OCCC(CO)Nc1ncnc2[nH]ccc12 (stereo not shown) [AVI-3734] |  |  | 1 |  |  |  |  | Ligand efficiency (binding enery per heavy atom) [1, 13]: 0.37; Ki [1, 14]: 48 µM; IC50 ([1]; read-out: HTRF IC50): 52 µM |
| Cc1c[nH]c2ncnc(NCC(C)(C)O)c12 [AVI-3758, 2-methyl-1-((5-methyl-7H-pyrrolo[2,3-d]pyrimidin-4-yl)amino)propan-2-ol] |  |  |  |  |  |  |  | Hill slope ([1]; HTRF dose-response fit, Mac1): 1.0; Ligand efficiency (binding enery per heavy atom) [1, 13]: 0.40; Hill slope [1, 15]: 1.0; Ki [1, 14]: 26 µM; IC50 ([1]; read-out: HTRF IC50): 28 µM; Occupancy difference (refined_occupancy - 2*(1-BDC)) [2]: 22; Refined ligand occupancy (%) [2]: 50%; 1-BDC [2]: 0.14; X-ray crystal structure [2]: TRUE; Hit (PanDDA run, overall) [2, 11]: TRUE; Hit (PanDDA run, DMSO background map) [2, 12]: TRUE; 1-BDC (PanDDA run, DMSO background map) [2, 16]: 0.19 and 0.14; Total number of conformations [2]: 2; Number of isomers bound [2, 17]: 1; 2*(1-BDC) (%) [2]: 28%; Binding site [2]: Adenosine; Isomers modeled [2, 18]: achiral,achiral |
| Cc1c[nH]c2ncnc(NCC3(O)CCCC3)c12 [AVI-3760, 1-(((5-methyl-7H-pyrrolo[2,3-d]pyrimidin-4-yl)amino)methyl)cyclopentan-1-ol] |  |  |  |  |  |  |  | Hill slope ([1]; HTRF dose-response fit, Mac1): 1.1; Ligand efficiency (binding enery per heavy atom) [1, 13]: 0.36; Hill slope [1, 15]: 1.1; IC50 [1, 19]: 19 µM; Ki [1, 14]: 18 µM; Occupancy difference (refined_occupancy - 2*(1-BDC)) [2]: 18; Refined ligand occupancy (%) [2]: 50%; 1-BDC [2]: 0.16; X-ray crystal structure [2]: TRUE; Hit (PanDDA run, overall) [2, 11]: TRUE; Hit (PanDDA run, DMSO background map) [2, 12]: TRUE; 1-BDC (PanDDA run, DMSO background map) [2, 16]: 0.19 and 0.16; Total number of conformations [2]: 2; Number of isomers bound [2, 17]: 1; 2*(1-BDC) (%) [2]: 32%; Binding site [2]: Adenosine; Isomers modeled [2, 18]: achiral,achiral |
| Cc1c[nH]c2ncnc(NCC3(O)CCCCC3)c12 [AVI-3761, 1-(((5-methyl-7H-pyrrolo[2,3-d]pyrimidin-4-yl)amino)methyl)cyclohexan-1-ol] |  |  |  |  |  |  |  | Ki [1]: 12 µM; IC50 ([1]; HTRF IC50): 13 µM; Isomers modeled [2]: achiral; Number of isomers bound [2]: 1 |
| CC(O)C1CCCN1c1ncnc2[nH]ccc12 (stereo not shown) [AVI-4062] | 51 | 0.35 |  |  |  |  |  | fold decrease in affinity compared to AVI-607 ([1]; HTRF): ~ 3 fold; IC50 ([1]; read-out: HTRF IC50): 55 µM; Number of isomers bound [2, 17]: 1 |
| O=C(O)C(F)(F)F.OC[C@H](Cc1ccc(O)cc1)Nc1ncnc2[nH]ccc12 [AVI-4066] |  |  |  |  |  |  |  | Ligand efficiency (binding enery per heavy atom) [1, 13]: 0.21; IC50 [1, 19]: 720 µM; Ki [1, 14]: 670 µM; Hit (PanDDA run, TFA/DMSO background map) ([2]; crystal soak 10 mM, TFA/DMSO background map): TRUE; 1-BDC (PanDDA run, TFA/DMSO background map) ([2]; crystal soak 10 mM, TFA/DMSO background map, event 1): 0.19 and 0.29 and 0.3; Number of isomers bound [2, 17]: 1 |
| CC(C)(O)C1N(c2ncnc3[nH]ccc23)CCC1(C)C (stereo not shown) [AVI-4126] | 93 | 0.28 |  |  |  |  |  | IC50 [1, 3]: 100 µM; Number of isomers bound [2, 17]: 2; Isomers modeled [2, 18]: R,S |
| CC(C)(O)C1C2CCCCC2CN1c1ncnc2[nH]ccc12 (stereo not shown) [AVI-4127] | 120 | 0.25 |  |  |  |  |  | IC50 [1, 3]: 130 µM; Number of isomers bound [2, 17]: 2; Isomers modeled [2, 18]: SSR,SRS |
| CC(C)(O)C1C2CCC2CN1c1ncnc2[nH]ccc12 (stereo not shown) [AVI-4128] | 22 | 0.32 |  |  |  |  |  | IC50 ([1]; read-out: HTRF IC50): 24 µM; Number of isomers bound [2, 17]: 1; Isomers modeled [2, 18]: SRR |
| Cc1c[nH]c2ncnc(NCC3(O)CCOCC3)c12 [AVI-4194, 4-(((5-methyl-7H-pyrrolo[2,3-d]pyrimidin-4-yl)amino)methyl)tetrahydro-2H-pyran-4-ol] | 150 | 0.28 |  |  |  |  |  | IC50 [1, 3]: 160 µM; Number of isomers bound [2, 17]: 1; Isomers modeled [2, 18]: achiral |
| Cc1c[nH]c2ncnc(NCC3(O)CCSCC3)c12 [AVI-4195, 4-(((5-methyl-7H-pyrrolo[2,3-d]pyrimidin-4-yl)amino)methyl)tetrahydro-2H-thiopyran-4-ol] | 48 | 0.31 |  |  |  |  |  | IC50 [1, 3]: 52 µM; Number of isomers bound [2, 17]: 1; Isomers modeled [2, 18]: achiral |

Source: paper doi:10.1101/2024.08.25.609621 (bioRxiv, 2024)
